In patent US20230165872A1, “COMBINATION OF BCMA-DIRECTED T CELL THERAPY AND AN IMMUNOMODULATORY COMPOUND” (Juno Therapeutics, Inc., priority 2020, published 2023):

Legend:
[1] = test system: IMiD/CELMoD resistant cell line DF-15R; assay: Rescue: rechallenge of chronically stimulated anti-BCMA CAR T cells with DF-15R; assay type: cell-based, human; settings: DF-15R rechallenge after 7-day chronic stimulation
Method: Studies were undertaken to determine whether Compound A (iberdomide, (S)-3-[4-(4-morpholin-4-ylmethyl-benzyloxy)-1-oxo-1,3-dihydro-isoindol-2-yl]-piperidine-2,6-dione) rescued anti-BCMA CAR T cell function following chronic stimulation. To directly stimulate via CAR engagement to induce chronic stimulation of cells, anti-BCMA CAR T cells were stimulated with BCMA conjugated beads (diameter about 4.5 μm from a 50 μg/ml BCMA-conjugated bead composition, generated as described in Example 9) at a ratio of T cells to beads of 1:1. The cells were then incubated at 37° C., 5% CO2 for 7 days.
To further elucidate the role of Compound A on the target cells compared to the CAR T cell intrinsic effects, the IMiD/CELMoD resistant cell line DF-15R was also used to rechallenge anti-BCMA CAR T cells that had been chronically stimulated for 7 days. Cytolytic activity and cytokine production following the rechallenge were assessed as described above.

[2] = test system: DF-15(R) (multiple myeloma) cells; assay: Murine orthotopic DF-15(R) tumor model (resistant), anti-BCMA CAR T cells plus Compound A; assay type: in vivo, mouse; settings: combination
Method: Anti-tumor effects of anti-BCMA CAR T cells, alone and in combination with concurrent or delayed administration of Compound A (iberdomide, (S)-3-[4-(4-morpholin ylmethyl-benzyloxy)-1-oxo-1,3-dihydro-isoindol-2-yl]-piperidine-2,6-dione), were assessed in disseminated tumor models. The combinatorial effects were assessed in both tumor models sensitive to and resistant to the immunomodulatory compound. The anti-BCMA CAR T cells used in the study were produced as described in Example 1.
The effects of anti-BCMA CAR-T cells in combination with Compound A was assessed in a murine orthotopic tumor model using DF-15(R) cells, which is a tumor model that is resistant to the immunomodulatory compound. Mice (NOD.Cg-Prkdc^scidIL-2rg^tm1Wj1/SzJ mice (NSG; Jackson Labs)) were injected intravenously (i.v.) with 2×10^6 DF-15(R) (multiple myeloma) cells transfected with firefly luciferase ([…]). Tumor engraftment was allowed to occur for 13 days prior to staging (14 days before CAR-T cell administration) and verified using bioluminescence imaging.
In one study, mice were administered Compound A (1 mg/kg or 3 mg/kg) via oral administration once a day starting from the day before administration of 0.5×10^6 anti-BCMA CAR T cells, and administration of Compound A was continued once a day until 32 days post-CAR T cell administration (concurrent dosing). […]
For bioluminescence imaging (BLI), mice received intraperitoneal (i.p.) injections of luciferin substrate (CaliperLife Sciences, Hopkinton, Mass.) resuspended in PBS (15 μg/g body weight). The average radiance (p/s/cm^2/sr) was determined. Survival of mice treated as described above were assessed and compared over time post-infusion of CAR-expressing T cells. […]
The numbers of CD3+ CAR T cells were determined in the blood at day 6 and day 14 by flow cytometry using antibodies directed against CD3 and the surrogate marker on the CAR-expressing cells.

CAR-expressing T cells = assay: Prolonged treatment: long-term proliferative potential of CAR-expressing T cells; assay type: cell-based; design: long term product performance: dose or concentration left out as unconfirmed
CRBN = CRBN (Homo sapiens, UniProt Q96SW2); settings: compared with lenalidomide and pomalidomide; cited from earlier work
Aiolos and Ikaros = settings: compared with lenalidomide and pomalidomide; cited from earlier work

Chain of CRBN (Q96SW2 whole entry, species assumed): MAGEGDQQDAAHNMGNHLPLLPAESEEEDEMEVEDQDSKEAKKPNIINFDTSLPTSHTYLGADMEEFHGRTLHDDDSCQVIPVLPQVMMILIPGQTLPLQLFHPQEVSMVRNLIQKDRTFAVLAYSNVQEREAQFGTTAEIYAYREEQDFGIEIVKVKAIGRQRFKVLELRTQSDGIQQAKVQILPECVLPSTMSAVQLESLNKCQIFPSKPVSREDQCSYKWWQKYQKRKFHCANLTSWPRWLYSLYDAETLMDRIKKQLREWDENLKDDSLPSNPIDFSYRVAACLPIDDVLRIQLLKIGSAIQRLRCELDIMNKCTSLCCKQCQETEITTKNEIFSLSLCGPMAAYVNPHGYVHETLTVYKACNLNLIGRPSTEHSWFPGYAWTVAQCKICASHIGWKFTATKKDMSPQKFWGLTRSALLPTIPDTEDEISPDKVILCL

Which results are given for O=C1CC[C@H](N2Cc3c(OCc4ccc(CN5CCOCC5)cc4)cccc3C2=O)C(=O)N1 [Compound A, (S)-3-[4-(4-morpholin-4-ylmethyl-benzyloxy)-1-oxo-1,3-dihydro-isoindol-2-yl]-piperidine-2,6-dione]?
cytolytic activity ([1]; Compound A 1 or 10 nM, FIG. 11A): increased cytolytic activity; cytokine production (IFN-gamma, IL-2, TNF-alpha) ([1]; FIG. 11B-D): increased; tumor burden (BLI) versus anti-BCMA CAR T cells alone ([2]; concurrent dosing, 1 or 3 mg/kg oral, FIG. 7A): reduce tumor burden; survival versus anti-BCMA CAR T cells alone ([2]; concurrent dosing, FIG. 7B): improve survival; numbers of CD3+ CAR+ T cells in the blood ([2]; concurrent regimen, low and high dose, day 6 and day 14, FIG. 7C): statistically significant increase; long term product performance (CAR-expressing T cells; higher concentrations): detrimental; long-term proliferative potential of CAR-expressing T cells (CAR-expressing T cells; prolonged treatment, 10 or 100 nM): increase long-term proliferative potential; binding to CRBN (CRBN): binds more potently; efficiency of degrading Aiolos and Ikaros (Aiolos and Ikaros): more efficient at degrading Aiolos and Ikaros than lenalidomide and pomalidomide
